Consider 1 compound from US7741484B2, “Process for synthesis of phenoxy diaminopyrimidine derivatives” (Roche Palo Alto LLC, priority 2005, dated 2010).

The target in the experiment is T1, rat P2X3 receptor (Rattus norvegicus, UniProt P49654).
T1 construct: expressed in transfected cells; host or cells: CHO-K1
T1 sequence (P49654 1-397): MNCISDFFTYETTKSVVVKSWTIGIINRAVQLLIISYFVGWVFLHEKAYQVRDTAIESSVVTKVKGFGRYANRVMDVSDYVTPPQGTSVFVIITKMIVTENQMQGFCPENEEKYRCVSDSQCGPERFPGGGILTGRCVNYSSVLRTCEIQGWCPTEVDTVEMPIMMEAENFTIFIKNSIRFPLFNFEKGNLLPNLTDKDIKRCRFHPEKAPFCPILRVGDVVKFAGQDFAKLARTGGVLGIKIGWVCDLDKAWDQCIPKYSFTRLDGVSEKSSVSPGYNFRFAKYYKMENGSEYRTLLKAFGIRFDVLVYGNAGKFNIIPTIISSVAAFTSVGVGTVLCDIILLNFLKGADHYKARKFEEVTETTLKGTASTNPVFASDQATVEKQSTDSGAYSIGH
Nature of the experiment: P2X3 FLIPR (Fluorometric Imaging Plate Reader) assay, inhibition of α,β-meATP-evoked calcium fluorescence. The class given is cell-based. The settings on record: CHO-K1 cells transfected with cloned rat P2X3; agonist α,β-meATP 1 μM; Fluo-3 AM; read-out: pIC50 for the P2X3 receptor (converted). The procedure: CHO-K1 cells were transfected with cloned rat P2X3 or human P2X2/3 receptor subunits and passaged in flasks. 18-24 hours before the FLIPR experiment, cells were released from their flasks, centrifuged, and resuspended in nutrient medium at 2.5×10^5 cells/ml. The cells were aliquoted into black-walled 96-well plates at a density of 50,000 cells/well and incubated overnight in 5% CO2 at 37° C. On the day of the experiment, cells were washed in FLIPR buffer (calcium- and magnesium-free Hank's balanced salt solution, 10 mM HEPES, 2 mM CaCl2, 2.5 mM probenecid; FB). Each well received 100 μl FB and 100 μl of the fluorescent dye Fluo-3 AM [2 μM final conc.]. […]
Test compounds (dissolved in DMSO at 10 mM and serially diluted with FB) or vehicle were added to each well (25 μl of a 4× solution) and allowed to equilibrate for 20 minutes at room temperature. The plates were then placed in the FLIPR and a baseline fluorescence measurement (excitation at 488 nm and emission at 510-570 nm) was obtained for 10 seconds before a 100 μl/well agonist or vehicle addition. […] Fluorescence was measured for an additional 2 minutes at 1 second intervals after agonist addition. A final addition of ionomycin (5 μM, final concentration) was made to each well of the FLIPR test plate to establish cell viability and maximum fluorescence of dye-bound cytosolic calcium. […]

On to `COc1cc(C(C)C)c(Oc2cnc(N)nc2N)cc1I` [5-(5-Iodo-2-isopropyl-4-methoxy-phenoxy)-pyrimidine-2,4-diamine], for which the IC50 is roughly 10 nM.
